{"source": "patent US20120046232A1", "about": "“COMPOSITIONS AND METHODS FOR REDUCING RELAPSE OF ADDICTIVE BEHAVIOR” (Medical University of South Carolina, priority 2010, published 2012)", "key": {"mGluR5 [1]": {"target": "T1, mGluR5 (Rattus norvegicus, UniProt P31424)", "T1 construct": "from tissue; host or cells: brain of living Sprague-Dawley rats (nucleus accumbens for CHPG microinjection; systemic dosing for MTEP, MPEP, Fenobam)", "T1 sequence (P31424 21-1203)": "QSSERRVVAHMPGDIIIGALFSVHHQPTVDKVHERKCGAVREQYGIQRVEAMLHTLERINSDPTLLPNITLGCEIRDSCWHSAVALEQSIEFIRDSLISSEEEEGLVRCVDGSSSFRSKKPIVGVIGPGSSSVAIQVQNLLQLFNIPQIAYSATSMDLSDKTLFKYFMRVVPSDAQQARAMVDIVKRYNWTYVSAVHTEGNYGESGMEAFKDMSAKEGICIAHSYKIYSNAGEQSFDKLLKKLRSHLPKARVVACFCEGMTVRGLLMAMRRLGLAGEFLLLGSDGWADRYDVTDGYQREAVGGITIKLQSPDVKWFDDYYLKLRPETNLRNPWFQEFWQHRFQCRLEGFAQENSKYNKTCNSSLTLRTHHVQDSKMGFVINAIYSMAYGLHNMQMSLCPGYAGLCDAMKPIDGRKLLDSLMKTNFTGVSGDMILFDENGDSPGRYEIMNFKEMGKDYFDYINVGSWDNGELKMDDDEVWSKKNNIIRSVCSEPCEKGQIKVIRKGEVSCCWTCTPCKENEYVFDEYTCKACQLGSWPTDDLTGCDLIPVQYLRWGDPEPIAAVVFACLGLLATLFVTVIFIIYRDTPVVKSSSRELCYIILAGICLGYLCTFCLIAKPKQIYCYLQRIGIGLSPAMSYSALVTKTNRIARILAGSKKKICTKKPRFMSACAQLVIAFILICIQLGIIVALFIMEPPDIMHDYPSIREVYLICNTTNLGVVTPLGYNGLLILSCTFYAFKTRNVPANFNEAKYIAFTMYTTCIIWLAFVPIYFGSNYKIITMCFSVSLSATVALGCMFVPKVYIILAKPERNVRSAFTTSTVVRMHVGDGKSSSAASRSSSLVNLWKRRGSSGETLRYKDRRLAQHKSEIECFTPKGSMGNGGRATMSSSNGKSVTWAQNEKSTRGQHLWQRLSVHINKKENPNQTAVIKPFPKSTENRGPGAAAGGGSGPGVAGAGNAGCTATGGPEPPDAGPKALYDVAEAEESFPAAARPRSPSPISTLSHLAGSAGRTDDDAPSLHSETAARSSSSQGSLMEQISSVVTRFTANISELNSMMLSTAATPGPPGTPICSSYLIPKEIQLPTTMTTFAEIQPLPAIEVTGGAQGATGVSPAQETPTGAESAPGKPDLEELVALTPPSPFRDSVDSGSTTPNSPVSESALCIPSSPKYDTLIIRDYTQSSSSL", "assay": "Cue-induced cocaine relapse (active lever presses), CHPG microinjected into nucleus accumbens (FIG. 1)", "type": "in vivo, rats", "experimental": "Relapse was induced by presenting the animal with a tone and light compound cue that was previously associated with cocaine delivery during the self-administration training. […] Data were analyzed using one-way ANOVA (2,14)=5.20, p=0.021; *p<0.05 compared to extinction, +p<0.05 comparing cue+aCSF (artificial cerebrospinal fluid control injection).\n(§1) All experiments were conducted in accordance with the US National Institutes of Health guidelines for the care and use of laboratory animals, and all procedures were approved by the Institutional Animal Care and Use Committee at the Medical University of South Carolina. One week after arrival, male Sprague-Dawley rats (250 g) were anesthetized with ketamine HCl (87.5 mg kg^−1 Ketaset, Fort Dodge Animal Health) and xylazine (5 mg kg^−1 Rompum, Bayer) and implanted with intravenous catheters. The catheters were flushed daily with cefazolin (0.2 ml of a 0.1 g/ml solution) and heparin (0.2 ml of 100 units) to prevent infection and maintain catheter patency. Rats were allowed to recover for a week before behavioral training (Baker et al. Nat. Neurosci 6:743-749, 2003).\nRats were trained to self-administer cocaine in a standard operant chamber with two retractable levers. The self-administration regimen consisted of 10d of self-administration at >10 infusions per session. […]"}, "mGluR2/3 receptors [2]": {"system": "mGluR2/3 receptors", "conditions": "bath application, accumbens slices; cited from earlier work"}, "mGluR2/3 [3]": {"system": "mGluR2/3", "conditions": "intra-accumbens infusion, microdialysis probes; cited from earlier work"}, "[4]": {"conditions": "cited from earlier work"}, "system XC−": {"system": "system XC−", "conditions": "cystine added to brain slices; cited from earlier work"}, "XC transporter": {"system": "XC transporter", "conditions": "cited from earlier work"}, "[5]": {"conditions": "cited from earlier work", "remark": "listed apart in the source"}, "[6]": {"conditions": "humans; cited from earlier work"}, "[7]": {"conditions": "cited from earlier work", "remark": "listed apart in the source"}, "mGluR5 [8]": {"target": "T1, mGluR5", "assay": "Cocaine+cue induced reinstatement, low-dose mGluR5 antagonists in rats given N-acetylcysteine after extinction (FIG. 6)", "type": "in vivo", "conditions": "MPEP 1.0 mg/kg/ip or Fenobam 1.75 mg/kg/ip", "experimental": "Top, treatment protocol for cocaine, N-acetylcysteine, and mGluR5 antagonists.\nRats were injected with low doses of MPEP (1.0 mg/kg/ip) or Fenobam (1.75 mg/kg/ip) (FIG. 6), both systemically active and selective mGluR5 receptor antagonists (Carroll, 2008; Montana et al., 2009).\nas §1\nRats were trained to self-administer cocaine in a standard operant chamber with two retractable levers. The self-administration regimen consisted of 10d of self-administration at >10 infusions per session. […] Cocaine self-administering rats were often paired with yoked saline controls. Extinction procedures began 24 h after the rat met the acquisition criterion and lasted for at least 3 weeks. Lever presses were inconsequential throughout the extinction training"}, "mGluR5 [9]": {"target": "T1, mGluR5", "assay": "Cocaine relapse, chronic NAC or saline followed by acute MPEP (FIG. 3)", "type": "in vivo", "experimental": "Data were analyzed by a two-way ANOVA interaction F(1,20)=7.17, p=0.015; *p<0.05 comparing saline to MPEP.\nTowards this end, the effects of chronic NAC followed by acute administration of mGluR5 modulator (MPEP) on relapse in the rat model were examined.\nas §1\nRats were trained to self-administer cocaine in a standard operant chamber with two retractable levers. The self-administration regimen consisted of 10d of self-administration at >10 infusions per session. […] Cocaine self-administering rats were often paired with yoked saline controls. […]"}, "mGluR2/3 [10]": {"system": "mGluR2/3", "conditions": "cited from earlier work; for PFC glutamate levels: infusion/perfusion into PFC, microdialysis"}, "mGluR2/3 receptors [11]": {"system": "mGluR2/3 receptors", "conditions": "perfusion into the accumbens, in vivo microdialysis; cited from earlier work"}, "[12]": {"conditions": "rats given N-acetylcysteine after extinction training"}}, "note": "Entries after “also recorded” stand apart in the source; their conditions may differ. Where two headings read alike, the source gives them in different places.", "data": [{"smiles": "NC(C(=O)O)c1cc(O)ccc1Cl", "note": "(centres unmarked) [CHPG]", "values": [{"measurement": "relapse induced by agonist alone", "setting": "mGluR5 [1]; CHPG alone, without cue", "value": "did not induce relapse"}, {"measurement": "cue-induced relapse (active lever presses)", "setting": "mGluR5 [1]; CHPG into nucleus accumbens plus tone and light cue, rats withdrawn 3-5 weeks after cocaine self-administration", "value": "dose-dependant increase"}]}, {"smiles": "N[C@H](C(=O)O)[C@H]1C[C@@H]1C(=O)O", "note": "[L-CCG1, (2S,1′S,2′S)-2-(2′-carboxycyclopropyl)glycine]", "values": [{"measurement": "mEPSC amplitude", "setting": "mGluR2/3 receptors [2]", "value": "without affecting"}, {"measurement": "mEPSC frequency", "setting": "mGluR2/3 receptors [2]", "value": "reduced"}, {"measurement": "paired pulse ratios", "setting": "mGluR2/3 receptors [2]", "value": "increased"}]}, {"smiles": "CC(N)(C(=O)O)c1ccc(P(=O)(O)O)cc1", "note": "(stereo not drawn) [MPPG, α-methyl-4-phosphonophenylglycine]", "values": [{"measurement": "basal dopamine levels", "setting": "mGluR2/3 [3]", "value": "increase"}]}, {"smiles": "N[C@@H](CSSC[C@H](N)C(=O)O)C(=O)O", "note": "[cystine]", "values": [{"measurement": "solubility", "setting": "[4]", "value": "very limited solubility"}, {"measurement": "extracellular glutamate levels", "setting": "system XC−", "value": "increases"}]}, {"smiles": "CC(=O)N[C@@H](CS)C(=O)O", "note": "[NAC, N-acetylcysteine]", "values": [{"measurement": "solubility", "setting": "[4]", "value": "more soluble"}, {"measurement": "extinction responding", "setting": "XC transporter; NAC for 2 weeks during extinction from heroin self-administration", "value": "reduces extinction responding"}, {"measurement": "reinstatement", "setting": "XC transporter; NAC for 2 weeks during extinction from heroin self-administration, up to one month after last injection", "value": "prevents reinstatement"}, {"measurement": "extinction responding", "setting": "XC transporter; NAC treatment during self-administration, after chronic cocaine", "value": "reduces extinction responding"}, {"measurement": "extracellular glutamate levels in the accumbens", "setting": "XC transporter; after chronic cocaine", "value": "normalizes"}, {"measurement": "relapse to drug seeking", "setting": "XC transporter; animal models of drug addiction", "value": "inhibit relapse to cocaine and heroin; also recorded: prevents relapse to drug seeking"}, {"measurement": "protection against relapse", "setting": "XC transporter; chronic NAC during cocaine self-administration or heroin extinction, several weeks after last NAC injection", "value": "enduring protection against relapse"}, {"measurement": "peak concentration", "setting": "[5]; 600 mg i.v. dose", "value": 300, "unit": "µM"}, {"measurement": "peak NAC plasma concentration", "setting": "[5]; humans, 400 mg oral dose", "value": "10 to 17", "unit": "µM"}, {"measurement": "peak NAC plasma concentration", "setting": "[5]; humans, 600 mg oral dose", "value": 16, "unit": "µM"}, {"measurement": "time of peak NAC plasma concentration after administration", "setting": "[5]; humans, 400 or 600 mg oral dose", "value": "one"}, {"measurement": "half-life", "setting": "[5]; oral NAC", "value": 6.25, "unit": "h"}, {"measurement": "oral bioavailability", "setting": "[5]; oral NAC", "value": "4-10%"}, {"measurement": "time to peak plasma concentration following ingestion", "setting": "[5]; oral NAC", "value": "1 to 2", "unit": "h"}, {"measurement": "cocaine, nicotine and marijuana use", "setting": "[6]", "value": "reduces but does not abolish"}, {"measurement": "compulsive gambling behavior", "setting": "[6]", "value": "reduce"}, {"measurement": "desire for cocaine use", "setting": "[6]", "value": "reduce"}, {"measurement": "marijuana abuse", "setting": "[6]", "value": "reduce"}, {"measurement": "number of cigarettes smoked", "setting": "[6]", "value": "reduce"}, {"measurement": "side effects", "setting": "[7]; clinical use", "value": "minimal and mostly limited to gastrointestinal discomfort; also recorded: without any noticeable side effects"}, {"measurement": "toxicity", "setting": "[7]; compared with cystine and cysteine", "value": "less toxic"}]}, {"smiles": "Cc1cccc(C#Cc2ccccc2)n1", "note": "[MPEP, 2-methyl-6-(phenylethynyl)pyridine]", "values": [{"measurement": "relapse to cocaine seeking (lever pressing)", "setting": "mGluR5 [8]; [12]", "value": "significantly reduced lever pressing; also recorded: inhibit relapse"}, {"measurement": "relapse to cocaine seeking (lever pressing)", "setting": "mGluR5 [8]; vehicle treated rats", "value": "not"}, {"measurement": "lever pressing (measure of relapse)", "setting": "mGluR5 [9]; acute MPEP in animals treated chronically with NAC", "value": "reduced cocaine relapse; also recorded: reduced lever pressing"}, {"measurement": "lever pressing (measure of relapse)", "setting": "mGluR5 [9]; acute MPEP in animals treated chronically with saline", "value": "without effect and not"}]}, {"smiles": "N[C@@]1(C(=O)O)CN[C@@H](C(=O)O)C1", "note": "[APDC, (2R,4R)-4-aminopyrrolidine-2,4-dycarboxylate]", "values": [{"measurement": "PFC glutamate levels", "setting": "mGluR2/3 [10]", "value": "without effect"}, {"measurement": "extracellular glutamate in the accumbens", "setting": "mGluR2/3 receptors [11]", "value": "reduced extracellular glutamate levels"}]}, {"smiles": "N[C@@]1(C(=O)O)CO[C@H]2[C@H](C(=O)O)[C@H]21", "note": "[LY379268]", "values": [{"measurement": "basal dopamine levels", "setting": "mGluR2/3 [3]", "value": "reduce"}]}, {"smiles": "N[C@](CC1c2ccccc2Oc2ccccc21)(C(=O)O)[C@H]1C[C@@H]1C(=O)O", "note": "[LY341495]", "values": [{"measurement": "glutamate levels in subcortical regions (nucleus accumbens and VTA)", "setting": "mGluR2/3 [10]; infusion in the prefrontal cortex", "value": "increased"}, {"measurement": "PFC glutamate levels", "setting": "mGluR2/3 [10]", "value": "increase"}, {"measurement": "extracellular glutamate in the accumbens", "setting": "mGluR2/3 receptors [11]", "value": "increased glutamate release"}]}, {"smiles": "CN1CC(=O)N=C1NC(=O)Nc1cccc(Cl)c1", "note": "[Fenobam, 1-(3-chlorophenyl)-3-(3-methyl-5-oxo-4H-imidazol-2-yl)urea]", "values": [{"measurement": "relapse to cocaine seeking (lever pressing)", "setting": "mGluR5 [8]; [12]", "value": "significantly reduced lever pressing; also recorded: inhibit relapse"}, {"measurement": "relapse to cocaine seeking (lever pressing)", "setting": "mGluR5 [8]; vehicle treated rats", "value": "not"}]}, {"smiles": "O=C(O)CCC(CP(=O)(O)O)C(=O)O", "note": "(centres unmarked) [2-PMPA, 2-(phosphonomethyl)-pentanedioic acid]", "values": [{"measurement": "basal dopamine levels", "setting": "mGluR2/3 [3]", "value": "reduce"}]}, {"smiles": "N[C@H](C(=O)O)C1[C@@H](C(=O)O)[C@@H]1C(=O)O", "note": "(stereo partly drawn) [DCG-4, (2S,1′R,2′R,3′R)-2-(2,3-dicarboxycyclopropyl)glycine]", "values": [{"measurement": "basal dopamine levels", "setting": "mGluR2/3 [3]", "value": "reduce"}]}, {"smiles": "N[C@]1(C(=O)O)[C@H]2[C@@H](C[C@H]1OCc1ccc(Cl)c(Cl)c1)[C@]2(F)C(=O)O", "note": "[MGS0039]", "values": [{"measurement": "basal dopamine levels", "setting": "mGluR2/3 [3]", "value": "increase"}]}]}
